Data as given in patent US20180221546A1, “IMPLANTABLE ORTHOPEDIC DEVICES HAVING ANTIMICROBIAL COATINGS” (TELEFLEX MEDICAL INCORPORATED, priority 2015, published 2018).
≈ marks a conversion by molar mass, not a printed value.

Tests used:
Assay type in all cases: cell-based
Staphylococcus aureus [1] = assay: Time to Kill; settings: 128 ppm; S. aureus challenge 10^4-10^5 CFU/mL
Protocol: (§1) Alexidine and Chlorhexidine, both at a concentration of 128 ppm were exposed to a Gram positive bacteria (Staphylococcus aureus), a Gram negative bacteria (Pseudomonas aeruginosa), and a fungus (Candida albicans). The challenge concentration for each organism was 10^4-10^5 CFU/mL, and the exposure time varied from 0.5-60 minutes. […] Complete kill of all three organisms was observed within 0.5 -1 minute of Alexidine exposure.

Candida albicans [2] = assay: Time to Kill; settings: 128 ppm; C. albicans challenge 10^4-10^5 CFU/mL
Protocol: as §1

Pseudomonas aeruginosa [3] = assay: Time to Kill; settings: 128 ppm; P. aeruginosa challenge 10^4-10^5 CFU/mL
Protocol: as §1

Enterococcus faecalis = assay: MIC and MBC by broth dilution in 96-well plate
Protocol: (§2) From the stock solutions of the drugs Alexidine and Chlorhexidine, dilution series was prepared in the wells of a 96-well plate by performing 1:1 dilutions to cover a concentration range of 0-512 ppm. Ten microliters from each of the drug concentration was mixed with […] of culture broth containing approximately 10^5CFU/mL of bacteria or yeast species. The test plate was incubated for 18-24 hours after which absorbance of each well was read at 670 nm on a BioTek plate reader. […] The wells containing growth should have had higher absorbance reading when compared to the drug control wells. After reading the absorbance for the MIC, 10 μl of each test well was plated onto the surface of D/E agar in 6 or 12 well microtiter plates to determine the MBC. The plates were incubated inverted at 37° C. for 24-48 hours after which numbers of colonies were counted. The MBC value was the lowest concentration of the drug at which no growth was observed.

Acinetobacter baumannii = assay: MIC and MBC by broth dilution in 96-well plate
Protocol: as §2

Proteus mirabilis = assay: MIC and MBC by broth dilution in 96-well plate
Protocol: as §2

Staphylococcus aureus [4] = assay: MIC and MBC by broth dilution in 96-well plate
Protocol: as §2

Enterobacter cloacae = assay: MIC and MBC by broth dilution in 96-well plate
Protocol: as §2

Candida albicans [5] = assay: MIC and MBC by broth dilution in 96-well plate
Protocol: as §2

Pseudomonas aeruginosa [6] = assay: MIC and MBC by broth dilution in 96-well plate
Protocol: as §2

Compound | Time to complete kill (Staphylococcus aureus [1]) [min] | Time to complete kill (Candida albicans [2]) [min] | Time to complete kill (Pseudomonas aeruginosa [3]) [min] | MBC (Enterococcus faecalis) [µg/mL] | MIC (Enterococcus faecalis) [µg/mL] | MBC (Acinetobacter baumannii) [µg/mL] | MIC (Acinetobacter baumannii) [µg/mL] | MBC (Proteus mirabilis) [µg/mL] | MIC (Proteus mirabilis) [µg/mL] | MBC (Staphylococcus aureus [4]) [µg/mL] | MIC (Staphylococcus aureus [4]) [µg/mL] | MBC (Enterobacter cloacae) [µg/mL] | MIC (Enterobacter cloacae) [µg/mL] | MBC (Candida albicans [5]) [µg/mL] | MIC (Candida albicans [5]) [µg/mL] | MBC (Pseudomonas aeruginosa [6]) [µg/mL] | MIC (Pseudomonas aeruginosa [6]) [µg/mL]
CCCCC(CC)CNC(=N)NC(=N)NCCCCCCNC(=N)NC(=N)NCC(CC)CCCC (stereo not shown) [Alexidine] | 0.5 to 1 | 0.5 to 1 | 0.5 to 1 | 2 (≈ 3.93 µM) | 0.5 (≈ 0.983 µM) | 1 (≈ 1.97 µM) | 0.5 (≈ 0.983 µM) | 2 (≈ 3.93 µM) | 1 (≈ 1.97 µM) | 1 (≈ 1.97 µM) | 0.5 (≈ 0.983 µM) | 2 (≈ 3.93 µM) | 2 (≈ 3.93 µM) | 1 (≈ 1.97 µM) | 1 (≈ 1.97 µM) | 128 (≈ 252 µM) | 8 (≈ 15.7 µM)
[H]/N=C(\N/C(=N/[H])NCCCCCCNC(=N)NC(=N)Nc1ccc(Cl)cc1)Nc1ccc(Cl)cc1 [Chlorhexidine] | 60 | 60 | 5 | 64 (≈ 127 µM) | 2 (≈ 3.96 µM) | 32 (≈ 63.3 µM) | 16 (≈ 31.7 µM) | 8 (≈ 15.8 µM) | 8 (≈ 15.8 µM) | 16 (≈ 31.7 µM) | 0.5 (≈ 0.989 µM) | 32 (≈ 63.3 µM) | 2 (≈ 3.96 µM) | 4 (≈ 7.91 µM) | 2 (≈ 3.96 µM) | 64 (≈ 127 µM) | 8 (≈ 15.8 µM)
